From paper PMC11940194, “Synthesis, Antiproliferative Activity, and ADME Profiling of Novel Racemic and Optically Pure Aryl-Substituted Purines and Purine Bioisosteres” (Biomolecules, 2025)

Key:
[1] = test system: hepatocellular carcinoma (HepG2) cells; assay: Antiproliferative MTT assay, HepG2; type: cell-based, human; conditions: for IC50: Homo sapiens, HepG2, 72 h, 72 h incubation, MTT, mean ± SD
Procedure, shortened: (§1)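 Growth inhibition is measured by MTT after cells are exposed for 72 h to compounds spanning 0.01 to 100 µM. IC50 is derived from dose–response curves by linear regression, with quadruplicate wells in two independent runs.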

[2] = Metabolic stability in mouse liver microsomes; type: in vitro ADME
Description: Mouse liver microsomes were obtained from Corning Life Sciences (Corning, NY, USA). DMSO, nicotinamide adenine dinucleotide phosphate (NADP), glucose-6-phosphate, glucose-6-phosphate dehydrogenase, magnesium chloride, propranolol, caffeine, diclofenac, and phosphate-buffered saline (PBS) were purchased from Sigma (St. Louis, MO, USA). Acetonitrile (ACN) and methanol (MeOH) were obtained from Merck (Darmstadt, Germany). Testosterone was purchased from Steraloids (Newport, RI, USA). Metabolic stability was assessed in mouse liver microsomes. Compounds (final concentration of 1 µM, 0.03% DMSO v/v) were incubated in duplicate in phosphate buffer (50 mM, pH 7.4) at 37 °C together with mouse liver microsomes in the absence and presence of the NADPH cofactor (0.5 mM nicotinamide adenine dinucleotide phosphate, 5 mM glucose-6-phosphate, 1.5 U/mL glucose-6-phosphate dehydrogenase, and 0.5 mM magnesium chloride). Incubation and sampling were performed on a Freedom EVO 200 (Tecan, Männedorf, CH, Switzerland) at […], 10, 20, 30, 45, and 60 min. The reaction was quenched using 3 volumes of a mixture of ACN/MeOH (2:1) containing internal standard (diclofenac), centrifuged, and the supernatants were analyzed using LC-MS/MS. The metabolic activity of the microsomes was verified via simultaneous analysis of several controls including testosterone, propranolol, and caffeine. The in vitro half-life (t1/2) was calculated using GraphPad Prism (v9.0 software) non-linear regression of % of parent compound remaining versus time. In vitro clearance, expressed as µL/min/mg, was estimated from the in vitro half-life (t1/2) and normalized for the protein amount in the incubation mixture, assuming 52.5 mg of protein per gram of liver and using constant values for mouse liver weight/body weight [87.5 g/kg] and mouse liver blood flow (LBF) [131 mL/min/kg].
All samples were quantified using tandem mass spectrometry coupled to liquid chromatography. Samples were analyzed on a Sciex API4000 Triple Quadrupole Mass Spectrometer (Sciex, Division of MDS Inc., Toronto, Canada) coupled to a Shimadzu Nexera X2 UHPLC frontend (Kyoto, Japan). Samples were injected onto a UHPLC column (HALO2 C18, 2.1 × 20 mm, 2 µm or Luna Omega 1.6 µm Polar C18 100A, 30 × 2.1 mm) and eluted with a gradient at 50 °C. The mobile phase was composed of acetonitrile/water mixture (9/1, with 0.1% formic acid) and 0.1% formic acid in deionized water. The flow rate was 0.7 mL/min under gradient conditions, leading to a total run time of 1.5–2 min. A positive ion mode with turbo spray, an ion source temperature of 550 °C, and a dwell time of 150 ms were utilized for mass spectrometric detection. Quantitation was performed using multiple reaction monitoring (MRM) at the specific transitions for each compound.

[3] = test system: colorectal carcinoma (HT-29) cells; assay: Antiproliferative MTT assay, HT-29; type: cell-based, human; conditions: Homo sapiens, HT-29, 72 h, 72 h incubation, MTT; mean ± SD
Procedure, shortened: as §1

[4] = test system: pancreatic ductal adenocarcinoma (CFPAC-1) cells; assay: Antiproliferative MTT assay, CFPAC-1; type: cell-based, human; conditions: for IC50: 72 h incubation, MTT, mean ± SD
Procedure, shortened: as §1

[5] = test system: breast adenocarcinoma (MCF7) cells; assay: Antiproliferative MTT assay, MCF-7; type: cell-based, human; conditions: for IC50: Homo sapiens, MCF7, 72 h incubation, MTT, mean ± SD
Procedure, shortened: as §1

Row | SMILES | IC50 [1] [µM] | SI (HepG2) ([1]; SI = [IC50 HFF]/[IC50 HepG2]) | Clearance Class. ([2]; mouse liver microsomes) | IC50 [3] [µM] | IC50 ([4]; Homo sapiens, CFPAC-1, 72 h) [µM] | IC50 [5] [µM] | Clearance Values (CL) ([2]; predicted in vivo hepatic clearance from mouse liver microsome t1/2, 1 µM compound) [%] | IC50 [4] [µM] | SI (CFPAC-1) ([4]; SI = [IC50 HFF]/[IC50 CFPAC-1]) | SI (MCF-7) ([5]; SI = [IC50 HFF]/[IC50 MCF-7])
1 | OC(Cn1cc(Cn2cnc3c(Cl)nccc32)nn1)c1ccc(Br)cc1 (centres unmarked) [Compound 49b, 4-Chloro-1-((1-(2-hydroxy-2-(4-bromophenyl)ethyl)-1H-1,2,3-triazol-4-yl)methyl)-1H-imidazo[4,5-c]pyridine] | 4 | 5.3 | LOW (<30% low) | 10 ± 3.2 | 21 ± 0.7 | 46 |  |  |  | 
2 | OCC(c1ccc(C(F)(F)F)cc1)n1cc(Cn2ccc3c(Cl)ncnc32)nn1 (centres unmarked) [Compound 45a, 4-Chloro-7-((1-(2-hydroxy-1-(4-(trifluoromethyl)phenyl)ethyl)-1H-1,2,3-triazol-4-yl)methyl)-7H-pyrrolo[2,3-d]pyrimidine] | 28 ± 0.5 |  |  | 26 ± 1.2 | 1 to 8 | 0.5 ± 0.1 | 54 | 1 ± 0.7 | 20.0 | 40
